Results on 1 compound are retold here after patent publication US10526581B2, “Modulation of cardiac stem-progenitor cell differentiation, assays and uses thereof” (priority 2013, dated 2020).

In series [1] the test system is rats with ISO+5-FU cardiomyopathy. Kind of series: hemodynamic measurements (LV catheterization) after tail vein cell injection in ISO+5-FU cardiomyopathy. It counts as in vivo, rat. To be noted: (84 d) 3 months.
The subject of series [2] is adult rat myocardium. Description: diffuse myocardial damage by single ISO injection in rats: eCSC activation. The format is in vivo. The source says: Adult c-kit^poseCSCs are scattered throughout the myocardium with higher density within the atria and the ventricular apex (10). When the apical myocardium is severely injured by catecholamine overdrives, induced through Isoproterenol bolus injection, c-kit^poseCSCs are rapidly activated and respond to damage by increasing their number (16) and differentiate into cardiomyocyte lineage (Unpublished data). The same growth response by these cells is detectable in the ischemic myocardium (17) as well as in hearts with pathologic or physiological overload (18,19). During embryonic life, a progressive process of cell specification or commitment, precisely regulated in space and time, determine cardiac muscle cell creation from cardiac progenitor cells (20). In the latter phenomenon, “cell-autonomous” decisions (intrinsic to a cell) are accompanied by “cell-non-autonomous” events, which entail extracellular cardiomyogenic instructive molecules known as morphogens or cardiopoietic growth factors (cGFs) (8,9). […] The mRNA levels for different cGFs and their detection by immunohistochemistry correlated with the levels of the corresponding protein (FIG. 4).
Diffuse myocardial damage was induced by a single injection (s.c.) of isoproterenol (ISO) to rats (5 mg kg^−1) or mice (200 mg kg^−1). […] Mer-CreMer mice were kindly provided by Drs. Tammie Bishop and Ludwig Thierfelder (see below). ZEG and RYP mice were purchased at Jackson Laboratory.
To follow c-kit^poseCSC physiological response to cardiac injury, we induced severe diffuse myocardial damage in adult rats with a single high dose of isoproterenol (ISO) (Ellison et al., 2007b). New cell formation was monitored with BrdU labeling in vivo (Waring et al., 2012). In the presence of a patent coronary circulation, ISO produces a Takotsubo-like cardiomyopathy (Akashi et al., 2008) with both diffuse sub-endocardial and apical CM death. This acute insult kills 8-10% of the LV CMs and results in overt acute heart failure (Ellison et al., 2007b). […] While in the normal myocardium (CTRL) most c-kit^poseCSCs are quiescent (>90% BrdU^neg and Ki67^neg), after ISO damage a high fraction enters the cell cycle (FIG. 14A-C and FIG. 21). At day 3, ˜88% are BrdU^pos (FIG. 14C), leading to an ˜8-fold increase in eCSC number, which decreases thereafter but remains above CTRL for up to 28 days (FIG. 14A).
The expansion of the eCSC pool in response to CM loss by ISO damage was followed by their commitment to myocardial cell lineages. […]

In series [3] the test system is adult myocytes isolated from Tg^c-kit/GFP mice. Kind of series: ISO in vitro on adult myocytes isolated from Tg^c-kit/GFP mice. It counts as cell-based, mouse. To be noted: ISO 10 nM, cultured for 48 hrs.
Series [4] relates to rats with ISO+5-FU cardiomyopathy. Description: echocardiography after tail vein cell injection in ISO+5-FU cardiomyopathy. The format is in vivo, rat. The settings on record: (84 d) 3 months.
The next series has as its system rats after ISO damage. The settings on record: at 28 days.
The subject of series [5] is adult rat myocardium. To be noted: single high dose of ISO; cited from earlier work.
A further series has as its system mouse heart. Description: ISO injury in Lenti-c-kit/Cre recombined RYP mice (c-kit^pos eCSC fate map). It counts as in vivo. To be noted: 28 days after ISO.

Take `CC(C)NCC(O)c1ccc(O)c(O)c1` (stereo not drawn) [ISO, isoproterenol]: in series [1], the LVDevP is given as 98.9 ± 10.6 mmHg, the LVEDP was determined as 2.2 ± 2.3 mmHg, the “dP/dt+” value is 8344 ± 1294 mmHg/s and the “dP/dt−” value is 7936 ± 1072 mmHg/s. Also, in the series on adult rat myocardium [2] (after ISO injection), the “expression of cardiopoietic growth factors in the myocardium” value was “significantly increased expression”. Also, in the series on adult rat myocardium [2] (by day 3 after ISO), the “increase of c-kit^posNkx2.5^posGATA4^pos cells over CTRL” value is on record as ~4 fold. Also, in the series on adult rat myocardium [2] (day 3 after ISO), the “BrdU^pos c-kit^pos eCSCs” value is given as ~88% and the “increase in eCSC number” value was ~8 fold. In series [3], the “ANP expression (fetal myocyte gene program)” value is “increased ANP expression” and the “c-kit/GFP transcription in adult myocytes” value is listed as “unable to activate”. For the same compound, in series [4], the EF was 88.6 ± 2.56%, the FS amounted to 51.7 ± 3.7%, the LVIDd amounted to 5.25 ± 0.42 mm and the LVIDs is reported as 2.53 ± 0.31 mm. For the same compound, the mortality in the series with rats after ISO damage is listed as 0 of 10. Also, in the series with adult rat myocardium [5], the “LV CMs killed” value is 8-10%. The “newly-formed (BrdU^pos) CMs” value in the series on mouse heart came out at 9.5±2%. The “YFP^pos cells in the unfixed CM preparation (FACS)” value in the series on mouse heart (LV apex) is 8.3±1%. Also, the “EYFP positive CMs, % of total BrdU^pos CMs” value in the series with mouse heart (LV) worked out at 43±3%. Also, the “EYFP positive CMs, % of total BrdU^pos CMs” value in the series with mouse heart (apex) is on record as 74±7%. The “YFP^pos cells in the unfixed CM preparation (FACS)” value in the series with mouse heart (total LV) worked out at 2.9±0.5%.
